Reference: US8507488B2, “Fused nitrogen containing heterocycles and compositions thereof as kinase inhibitors” (IRM LLC, priority 2008, dated 2013)
Like-named read-outs stand apart in the source and are kept apart here.

Legend:
Tel-TrkB = target: T1, Tel-TrkB (Homo sapiens, UniProt Q16620); experiment: Inhibition of proliferation of Ba/F3 cells expressing Tel-TrkB (BaF3/Tel-TrkB); format: cell-based
T1 construct: dimerization domain of Tel (ETV6) transcription factor (fusion partner, human ETV6 P41212); expressed in transfected cells; host or cells: luciferase expressing Ba/F3 murine hematopoietic progenitor cells; the other entry of the earlier key: ETV6 (P41212, Transcription factor ETV6)
In short: (§1)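 Luciferase-expressing murine Ba/F3 cells transformed with human Tel-TrkA or Tel-TrkB, plated at 2000 cells/well in IL3-free RPMI/10% FBS. Exposed to 12 concentrations of 3-fold serially diluted compound for 48 hours at 37° C, 5% CO2. Bright Glo luminescence read-out, with IC50 from linear regression of percent inhibition.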

[1] = target: T2, full length rTrkA and mNGF (Rattus norvegicus, UniProt P35739); experiment: Inhibition of proliferation of Ba/F3 cells co-expressing full length rTrkA and mNGF (BaF3/TrkA-NFG); format: cell-based; details: for IC50 in BaF3/TrkA-NFG CTG cellular assay: BaF3/TrkA-NFG cells; for BaF3 TRKA-NGF CTG IC 50: BaF3 TRKA-NGF cells, CTG readout
T2 construct: co-expressing full length rTrkA and mNGF; expressed in transfected cells; host or cells: Ba/F3 cells

parental BaF3 cells = experiment: Proliferation of parental (untransformed) Ba/F3 cells maintained with IL3; format: cell-based, murine; details: Mus musculus
In short: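 Untransformed murine Ba/F3 cells kept in RPMI/10% FCS with 5 ng/ml murine IL3, plated at 2000 cells/well and exposed to 12 concentrations of compound for 48 h at 37 °C. Viability read by Bright-Glo luciferase luminescence; IC50 from linear regression of % inhibition.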

Tel-TrkA [2] = target: T3, Tel-TrkA (Homo sapiens, UniProt P04629); experiment: Inhibition of proliferation of Ba/F3 cells expressing Tel-TrkA (BaF3/Tel-TrkA, luciferase/Bright Glo readout); format: cell-based; details: read-out: IC50 in BaF3/Tel-TrkA CTG cellular assay
T3 construct: dimerization domain of Tel (ETV6) transcription factor (fusion partner, human ETV6 P41212); expressed in transfected cells; host or cells: luciferase expressing Ba/F3 murine hematopoietic progenitor cells; the other entry of the earlier key: ETV6 (P41212, Transcription factor ETV6)

Tel-TrkA [3] = target: T3, Tel-TrkA; experiment: as above; format: cell-based; details: read-out: Ba/F3 Tel-TrkA IC 50
In short: as §1

Tel-TrkC = target: T4, Tel-TrkC (Homo sapiens, UniProt Q16288); experiment: Inhibition of proliferation of Ba/F3 cells expressing Tel-TrkC (BaF3/Tel-TrkC); format: cell-based; details: read-out: Ba/F3 Tel-TrkC IC 50
T4 construct: The cells also express luciferase as the viability read-out; it is not fused to the kinase; P41212 (Transcription factor ETV6)
Description: Test compounds were dissolved in DMSO (10 mM) and transferred into 1.4 mL flat bottom or V-shaped Matrix tubes carrying a unique 2D matrix chip by individual compound hubs. The numbers of these chips were distinctively linked to the individual compound identification numbers. The stock solutions were stored at −20° C. if not used immediately. For the test procedure the vials were defrosted and identified by a scanner whereby a working sheet is generated that guides the subsequent working steps.
Compound dilutions were made in 384 well plates. This format enabled the assay of maximally 28 individual test compounds at 12 concentrations (single points) including 2 reference compounds. The dilution protocol included the production of pre-dilution plates, master plates and assay plates: • Compound plates: 30 μL of individual compound (10 mM) DMSO solution including standard compound were transferred into columns 1 and 13 of a 384 well plate. 20 μL of DMSO were added to the rest of the wells and the compounds were serially diluted (1:3) by transferring 10 μL from a well in column 1 or 13 to the next well in column 2 or 14 respectively and successively with the help of a Minitrack robot. • Assay plates: Identical assay plates were then prepared by adding […] each of compound dilutions of the compound plates into 384-well “assay plates”. In the following the compounds were mixed with 50 μL of assays components (cells or enzyme) and tested for their inhibitory activity.
Compounds of Formula (I) were tested for their antiproliferative effect on Ba/F3 cells expressing either Tel-TrkA, Tel-TrkB or Tel-TrkC and an additional panel of 34 selected diverse kinases activated by fusion to the dimerizing partners Bcr or Tel (Abl, A1K, BMX, EphA3, EphB2, FGFR2, FGFR3, FGFR4, FGR, FLT1, FLT3, FLT4, FMS, IGF1R, InsR, JAK1, JAK2, JAK3, KDR, Kit, Lck, Lyn, MER, MET, PDGFRb, RET, RON, Ros-1, Src, Aurora, TIE2, TYK2, Tie1, ZAP70). The antiproliferative effect of these compounds on the different cell lines and on the non transformed cells were tested at 12 different concentrations of 3-fold serially diluted compounds in 384 well plates as described above (in media lacking IL3). The IC50 values of the compounds the different cell lines were determined from dose response curves.
The cell line used is the luciferase expressing Ba/F3 murine hematopoietic progenitor cell line transformed with human Tel-TrkA, Tel-TrkB or Tel-TrkC cDNAs (Ba/F3 EN A/B/C). These cells maintained in RPMI/10% fetal bovine serum (RPMI/FCS) supplemented with penicillin 50 mg/mL, streptomycin 50 mg/mL and L-glutamine […]. Untransformed Ba/F3 cells were similarly maintained with the addition 5 ng/ml of murine recombinant IL3. 50 μl of a Ba/F3 or Ba/F3 EN A/B/C cell suspension were plated in Greiner 384 well microplates (white)) at a density of 2000 cells per well. 50 nl of serially diluted test compound (10-0.0001 mM in DMSO solution) is added to each well. The cells were incubated for 48 hours at 37° C., 5% CO2. 25 μl of Bright Glo® (Promega) luciferase substrate is added to each well. The emited luminiscence is quantified using the ACQUEST™ luminescence system (Molecular Devices). IC50 values were calculated by linear regression analysis of the percentage inhibition of each compound at 12 concentrations.

KM12 luc = KM12 luc cell proliferation assay (Table 8); format: cell-based; details: KM12 luc cells; read-out: KM12 luc IC 50
[4] = BaF3/Tel-TrkB cells, read-out: IC50 in BaF3/Tel-TrkB CTG cellular assay
[5] = BaF3, parental BaF3 cells, read-out: IC50 in BaF3 CTG cellular assay
[6] = Ba/F3 Tel-TrkB cells, read-out: Ba/F3 Tel-TrkB IC 50
[7] = BaF3, parental Ba/F3 cells, read-out: Ba/F3 IC 50

T2 sequence (P35739 33-799): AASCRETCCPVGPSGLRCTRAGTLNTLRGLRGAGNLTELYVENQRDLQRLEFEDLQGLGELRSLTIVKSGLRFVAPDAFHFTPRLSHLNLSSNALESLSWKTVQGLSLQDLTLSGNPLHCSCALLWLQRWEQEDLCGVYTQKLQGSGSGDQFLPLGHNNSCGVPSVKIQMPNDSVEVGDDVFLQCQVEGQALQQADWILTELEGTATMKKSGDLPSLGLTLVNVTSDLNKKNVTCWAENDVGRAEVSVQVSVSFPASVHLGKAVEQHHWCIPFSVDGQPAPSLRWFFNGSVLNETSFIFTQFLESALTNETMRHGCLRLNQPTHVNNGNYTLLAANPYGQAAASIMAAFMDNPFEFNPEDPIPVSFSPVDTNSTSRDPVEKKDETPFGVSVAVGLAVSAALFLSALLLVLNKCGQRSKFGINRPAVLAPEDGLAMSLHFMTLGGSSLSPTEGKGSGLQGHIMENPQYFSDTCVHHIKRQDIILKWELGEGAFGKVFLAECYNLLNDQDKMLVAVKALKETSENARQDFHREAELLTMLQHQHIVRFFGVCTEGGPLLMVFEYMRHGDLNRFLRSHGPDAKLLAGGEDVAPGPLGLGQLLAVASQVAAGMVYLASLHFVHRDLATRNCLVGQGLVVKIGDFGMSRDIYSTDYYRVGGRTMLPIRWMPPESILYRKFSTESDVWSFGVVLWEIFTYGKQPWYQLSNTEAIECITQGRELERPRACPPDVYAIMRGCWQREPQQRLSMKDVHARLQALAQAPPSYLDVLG
T2 sequence (P01139 122-241 partner): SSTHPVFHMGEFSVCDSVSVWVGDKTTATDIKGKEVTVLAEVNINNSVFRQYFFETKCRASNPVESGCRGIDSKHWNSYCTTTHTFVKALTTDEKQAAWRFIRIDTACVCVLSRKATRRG
T3 sequence (P04629 510-796 limits assumed): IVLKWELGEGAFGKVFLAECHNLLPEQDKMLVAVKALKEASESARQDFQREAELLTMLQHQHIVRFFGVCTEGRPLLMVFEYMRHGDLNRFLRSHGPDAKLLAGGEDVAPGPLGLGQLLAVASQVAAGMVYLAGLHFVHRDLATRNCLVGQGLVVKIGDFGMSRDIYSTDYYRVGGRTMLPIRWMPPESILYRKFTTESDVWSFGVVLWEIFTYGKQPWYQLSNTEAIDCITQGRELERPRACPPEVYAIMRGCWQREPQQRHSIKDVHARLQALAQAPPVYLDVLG
T1 sequence (Q16620 538-822 limits assumed): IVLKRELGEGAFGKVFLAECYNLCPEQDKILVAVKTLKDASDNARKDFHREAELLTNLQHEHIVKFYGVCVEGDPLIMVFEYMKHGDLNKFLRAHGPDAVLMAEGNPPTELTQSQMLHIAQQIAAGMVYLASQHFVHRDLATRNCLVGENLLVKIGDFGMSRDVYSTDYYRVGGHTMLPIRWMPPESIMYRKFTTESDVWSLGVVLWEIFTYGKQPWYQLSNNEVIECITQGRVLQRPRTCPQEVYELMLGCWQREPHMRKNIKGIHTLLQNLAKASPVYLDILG
T4 sequence (Q16288 whole entry, the tested form may be a part): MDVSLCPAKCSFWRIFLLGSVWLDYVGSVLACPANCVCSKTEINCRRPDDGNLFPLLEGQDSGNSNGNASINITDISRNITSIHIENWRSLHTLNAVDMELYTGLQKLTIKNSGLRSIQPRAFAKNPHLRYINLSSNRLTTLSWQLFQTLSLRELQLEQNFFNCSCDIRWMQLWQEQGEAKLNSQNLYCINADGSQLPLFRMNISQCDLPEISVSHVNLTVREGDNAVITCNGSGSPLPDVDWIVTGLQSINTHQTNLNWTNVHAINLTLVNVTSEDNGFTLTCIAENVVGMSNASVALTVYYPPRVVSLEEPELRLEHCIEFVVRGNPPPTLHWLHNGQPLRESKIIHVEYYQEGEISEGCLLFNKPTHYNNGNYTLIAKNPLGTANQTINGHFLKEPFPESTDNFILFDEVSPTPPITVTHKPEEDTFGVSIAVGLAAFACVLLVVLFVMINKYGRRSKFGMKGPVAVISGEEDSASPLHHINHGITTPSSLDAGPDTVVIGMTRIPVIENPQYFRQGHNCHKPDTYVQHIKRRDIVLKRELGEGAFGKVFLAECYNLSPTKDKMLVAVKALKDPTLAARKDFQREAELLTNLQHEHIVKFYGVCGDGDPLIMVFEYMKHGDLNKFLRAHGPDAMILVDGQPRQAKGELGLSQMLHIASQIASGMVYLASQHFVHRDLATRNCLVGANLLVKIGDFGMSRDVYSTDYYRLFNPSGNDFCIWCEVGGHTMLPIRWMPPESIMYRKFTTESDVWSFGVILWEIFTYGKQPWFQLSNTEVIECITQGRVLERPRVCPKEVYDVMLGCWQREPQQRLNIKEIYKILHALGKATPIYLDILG

SMILES | IC50 (Tel-TrkB; [4]) | IC50 in BaF3/TrkA-NFG CTG cellular assay [1] | IC50 (parental BaF3 cells; [5]) | IC50 (Tel-TrkA [2]) | IC50 (Tel-TrkA [3]) | IC50 (Tel-TrkB; [6]) | IC50 (Tel-TrkC) | BaF3 TRKA-NGF CTG IC 50 [1] | IC50 (parental BaF3 cells; [7]) | IC50 (KM12 luc)
OC1CCN(c2cc(-c3cccc(-c4cnc5ccc(N6CCC[C@@H]6c6cccc(F)c6)nn45)n3)ccn2)CC1 [Compound 16-4, (R)-1-(6-(6-(2-(3-fluorophenyl)pyrrolidin-1-yl)imidazo[1,2-b]pyridazin-3-yl)-2,4′-bipyridin-2′-yl)piperidin-4-ol] | 12 nM | 13 nM | 4.41 µM | 5.2 nM | – | – | – | – | – | –
N#Cc1cc(-c2cnc3ccc(N4CCCC4c4cc(F)ccc4F)nn23)ccc1N1CCOCC1 (centres unmarked) [Table 5-Compound 2] | – | – | – | – | 26 nM | 15 nM | 8.4 nM | 0.049 µM | 6.17 µM | 29 nM
Fc1cccc(C2CCCN2c2ccc3ncc(-c4ccc5[nH]ccc5c4)n3n2)c1 (centres unmarked) [Table 3-Compound 18] | – | – | – | – | 13 nM | 10 nM | 1.4 nM | 0.020 µM | 7.23 µM | 24 nM
Fc1cccc(C2CCCN2c2ccc3ncc(-c4cncc(-n5ccnc5)n4)n3n2)c1 (centres unmarked) [Table 3-Compound 11] | – | – | – | – | 87 nM | 56 nM | 17 nM | 0.074 µM | > 10 µM | 36 nM
CN(C)c1ccc(-c2cnc3ccc(N4CCCC4c4cc(F)ccc4F)nn23)cc1C#N (centres unmarked) [Table 5-Compound 4] | – | – | – | – | 166 nM | 60 nM | 32 nM | 0.203 µM | 5.36 µM | 89 nM
Fc1cccc([C@H]2CCCN2c2ccc3ncc(-c4cccc(N5CCN(c6cccnc6)CC5)n4)n3n2)c1 [Table 7-Compound 255] | – | – | – | – | 9 nM | 17 nM | 3 nM | 0.009 µM | > 11 µM | 6 nM
Fc1cccc(C2CCCN2c2ccc3ncc(-c4cncc(Cl)n4)n3n2)c1 (centres unmarked) [Table 3-Compound 10] | – | – | – | – | 200 nM | 100 nM | 40 nM | 0.18 µM | > 10 µM | 94 nM
Cc1ccc(C)c(C2CCCN2c2ccc3ncc(-c4cccc(C(=O)O)n4)n3n2)c1 (centres unmarked) [Table 3-Compound 1] | – | – | – | – | 2310 nM | 470 nM | 240 nM | 1.73 µM | > 10 µM | 190 nM
CN1CCN(c2cnc(-c3cnc4ccc(N5CCCC5c5cccc(F)c5)nn34)cn2)CC1 (centres unmarked) [Table 3-Compound 7] | – | – | – | – | 35 nM | 52 nM | 20 nM | 0.027 µM | 5.03 µM | 23 nM
N#Cc1cccc(-c2cnc3ccc(N4CCCC4c4ccccc4)nn23)c1 (centres unmarked) [Table 3-Compound 54] | – | – | – | – | 86 nM | 41 nM | 17 nM | 0.111 µM | > 10 µM | 94 nM
CN1CCC(Oc2cc(-c3cnc4ccc(N5CCCC5c5cc(F)ccc5F)nn34)ccc2C#N)C1 (centres unmarked) [Table 5-Compound 22] | – | – | – | – | 132 nM | 88 nM | 27 nM | 0.316 µM | 2.25 µM | 99 nM
CN(C)CCN(C)c1cc(-c2cnc3ccc(N4CCCC4c4cc(F)ccc4F)nn23)ccc1C#N (centres unmarked) [Table 5-Compound 23] | – | – | – | – | 136 nM | 74 nM | 16 nM | 0.111 µM | 3.71 µM | 109 nM
N#Cc1ccc(-c2cnc3ccc(N4CCCC4c4cc(F)ccc4F)nn23)cc1N1CCC(N2CCOCC2)CC1 (centres unmarked) [Table 5-Compound 13] | – | – | – | – | 3.5 nM | 35 nM | 1.7 nM | 0.0053 µM | 4.84 µM | 7.5 nM
O[C@@H]1CCN(c2nccc(-c3cccc(-c4cnc5ccc(N6CCC[C@@H]6c6cccc(F)c6)nn45)n3)n2)C1 [Compound 14-4, (R)-1-(4-(6-(6-((R)-2-(3-fluorophenyl)pyrrolidin-1-yl)imidazo[1,2-b]pyridazin-3-yl)pyridin-2-yl)pyrimidin-2-yl)pyrrolidin-3-ol] | 3.3 nM | 4.2 nM | 4.07 µM | 2.2 nM | – | – | – | – | – | –
N#Cc1ccc(-c2cnc3ccc(N4CCCC4c4cc(F)ccc4F)nn23)cc1OCCN1CCOCC1 (centres unmarked) [Table 5-Compound 17] | – | – | – | – | 6.4 nM | 15 nM | 3.1 nM | 0.034 µM | > 10 µM | 8.8 nM
